Data taken from ChEMBL document CHEMBL2146376, “'Inverted' analogs of the antibiotic gramicidin S with an improved biological profile” (Bioorg Med Chem, 2012).
Values after ≈ are worked out from the molar mass of the structure shown. Square brackets hold non-standard residues; d marks the D form. Peptide text beside a SMILES is read from it. Gly(1-adamantyl) = N[C@H](C(=O)O)C12CC3CC(CC(C3)C1)C2; Orn = NCCC[C@H](N)C(=O)O

Columns and labels:
[1] = test system: Pseudomonas aeruginosa; experiment: Antibacterial activity against Pseudomonas aeruginosa ATCC 27853 after 24 hrs by broth dilution method; format: functional; details: ATCC 27853, 24 h
[2] = test system: Staphylococcus aureus; experiment: Antibacterial activity against PVL-positive and non-typable methicillin-resistant Staphylococcus aureus 1110301981H-T034 after 24 hrs by broth dilution method; format: functional
[3] = test system: Staphylococcus aureus; experiment: Antibacterial activity against PVL-positive and non-typable methicillin-resistant Staphylococcus aureus USA300-1110301146 after 24 hrs by broth dilution method; format: functional; details: USA300-1110301146, 24 h
[4] = test system: Escherichia coli; experiment: Antibacterial activity against Escherichia coli ATCC 25922 after 24 hrs by broth dilution method; format: functional; details: ATCC 25922, 24 h
[5] = test system: Staphylococcus aureus; experiment: Antibacterial activity against PVL-deficient and non-typable methicillin-resistant Staphylococcus aureus N133-T034 after 24 hrs by broth dilution method; format: functional; details: N133-T034, 24 h
[6] = test system: Staphylococcus epidermidis; experiment: Antibacterial activity against Staphylococcus epidermidis ATCC 12228 after 24 hrs by broth dilution method; format: functional; details: ATCC 12228, 24 h
[7] = test system: Bacillus cereus; experiment: Antibacterial activity against Bacillus cereus ATCC 11778 after 24 hrs by broth dilution method; format: functional; details: ATCC 11778, 24 h
[8] = Toxicity in human erythrocytes assessed as concentration required to achieve 100% hemolysis after 4 hrs; format: cell-based; details: erythrocyte
[9] = test system: Enterococcus faecalis; experiment: Antibacterial activity against Enterococcus faecalis ATCC 29212 after 24 hrs by broth dilution method; format: functional; details: ATCC 29212, 24 h
[10] = test system: Staphylococcus aureus; experiment: Antibacterial activity against Staphylococcus aureus ATCC 29213 after 24 hrs by broth dilution method; format: functional; details: ATCC 29213, 24 h
[11] = test system: Staphylococcus aureus; experiment: Antibacterial activity against PVL-deficient and non-typable methicillin-resistant Staphylococcus aureus N229-T034 after 24 hrs by broth dilution method; format: functional; details: N229-T034, 24 h

SMILES	MIC [1] [µg/mL]	MIC [2] [µg/mL]	MIC [3] [µg/mL]	MIC [4] [µg/mL]	MIC [5] [µg/mL]	MIC [6] [µg/mL]	MIC [7] [µg/mL]	Activity [8] [µM]	MIC [9] [µg/mL]	MIC [10] [µg/mL]	MIC [11] [µg/mL]
CC(C)(C)[C@@H]1NC(=O)[C@H](CCCN)NC(=O)[C@@H]2CCCN2C(=O)[C@@H](Cc2ccccc2)NC(=O)[C@H](CCCN)NC(=O)[C@H](C(C)(C)C)NC(=O)[C@H](CCCN)NC(=O)[C@@H]2CCCN2C(=O)[C@@H](Cc2ccccc2)NC(=O)[C@H](CCCN)NC1=O	> 64	> 64	> 64	> 64	> 64	64 (≈ 54.6 µM)	> 64	> 500	> 64	> 64	> 64
NCCC[C@@H]1NC(=O)[C@H](CC23CC4CC(CC(C4)C2)C3)NC(=O)[C@H](CCCN)NC(=O)[C@@H]2CCCN2C(=O)[C@@H](Cc2ccccc2)NC(=O)[C@H](CCCN)NC(=O)[C@H](CC23CC4CC(CC(C4)C2)C3)NC(=O)[C@H](CCCN)NC(=O)[C@@H]2CCCN2C(=O)[C@@H](Cc2ccccc2)NC1=O	16 (≈ 11.8 µM)	8 (≈ 5.9 µM)	8 (≈ 5.9 µM)	8 (≈ 5.9 µM)	8 (≈ 5.9 µM)	4 (≈ 2.95 µM)	8 (≈ 5.9 µM)	62.5	8 (≈ 5.9 µM)	8 (≈ 5.9 µM)	8 (≈ 5.9 µM)
CCCCCCCCCC[C@@H]1NC(=O)[C@H](CCCN)NC(=O)[C@@H]2CCCN2C(=O)[C@@H](Cc2ccccc2)NC(=O)[C@H](CCCN)NC(=O)[C@H](CCCCCCCCCC)NC(=O)[C@H](CCCN)NC(=O)[C@@H]2CCCN2C(=O)[C@@H](Cc2ccccc2)NC(=O)[C@H](CCCN)NC1=O	64 (≈ 47.8 µM)	64 (≈ 47.8 µM)	64 (≈ 47.8 µM)	64 (≈ 47.8 µM)	64 (≈ 47.8 µM)	4 (≈ 2.99 µM)	8 (≈ 5.97 µM)	62.5	32 (≈ 23.9 µM)	64 (≈ 47.8 µM)	64 (≈ 47.8 µM)
CC(C)C[C@@H]1NC(=O)[C@H](CCCN)NC(=O)[C@@H]2CCCN2C(=O)[C@@H](Cc2ccccc2)NC(=O)[C@H](CCCN)NC(=O)[C@H](CC(C)(C)C)NC(=O)[C@H](CCCN)NC(=O)[C@@H]2CCCN2C(=O)[C@@H](Cc2ccccc2)NC(=O)[C@H](CCCN)NC1=O	> 64	> 64	> 64	> 64	> 64	16 (≈ 13.5 µM)	> 64	> 500	> 64	> 64	> 64
NCCC[C@@H]1NC(=O)[C@H](C23CC4CC(CC(C4)C2)C3)NC(=O)[C@H](CCCN)NC(=O)[C@@H]2CCCN2C(=O)[C@@H](Cc2ccccc2)NC(=O)[C@H](CCCN)NC(=O)[C@H](C23CC4CC(CC(C4)C2)C3)NC(=O)[C@H](CCCN)NC(=O)[C@@H]2CCCN2C(=O)[C@@H](Cc2ccccc2)NC1=O (cyclo([Orn][dF]P[Orn][Gly(1-adamantyl)][Orn][dF]P[Orn][Gly(1-adamantyl)]))	16 (≈ 12.1 µM)	8 (≈ 6.03 µM)	8 (≈ 6.03 µM)	8 (≈ 6.03 µM)	8 (≈ 6.03 µM)	4 (≈ 3.01 µM)	8 (≈ 6.03 µM)	500	8 (≈ 6.03 µM)	8 (≈ 6.03 µM)	8 (≈ 6.03 µM)
CC(C)[C@@H]1NC(=O)[C@H](CCCN)NC(=O)[C@@H]2CCCN2C(=O)[C@@H](Cc2ccccc2)NC(=O)[C@H](CCCN)NC(=O)[C@H](C(C)C)NC(=O)[C@H](CCCN)NC(=O)[C@@H]2CCCN2C(=O)[C@@H](Cc2ccccc2)NC(=O)[C@H](CCCN)NC1=O	> 64	> 64	> 64	> 64	> 64	64 (≈ 56 µM)	> 64	> 500	> 64	> 64	> 64
CC(C)(C)[C@@H]1NC(=O)[C@H](CCCN)NC(=O)[C@@H]2CCCN2C(=O)[C@@H](Cc2ccccc2)NC(=O)[C@H](CCCN)NC(=O)[C@H](C23CC4CC(CC(C4)C2)C3)NC(=O)[C@H](CCCN)NC(=O)[C@@H]2CCCN2C(=O)[C@@H](Cc2ccccc2)NC(=O)[C@H](CCCN)NC1=O	32 (≈ 25.6 µM)	64 (≈ 51.2 µM)	64 (≈ 51.2 µM)	32 (≈ 25.6 µM)	64 (≈ 51.2 µM)	4 (≈ 3.2 µM)	32 (≈ 25.6 µM)	> 500	> 64	64 (≈ 51.2 µM)	64 (≈ 51.2 µM)
CCCCCCCCCC[C@@H]1NC(=O)[C@H](CCCN)NC(=O)[C@@H]2CCCN2C(=O)[C@@H](Cc2ccccc2)NC(=O)[C@H](CCCN)NC(=O)[C@H](C(C)C)NC(=O)[C@H](CCCN)NC(=O)[C@@H]2CCCN2C(=O)[C@@H](Cc2ccccc2)NC(=O)[C@H](CCCN)NC1=O	16 (≈ 12.9 µM)	16 (≈ 12.9 µM)	8 (≈ 6.44 µM)	16 (≈ 12.9 µM)	8 (≈ 6.44 µM)	8 (≈ 6.44 µM)	4 (≈ 3.22 µM)	500	16 (≈ 12.9 µM)	16 (≈ 12.9 µM)	8 (≈ 6.44 µM)
CC(C)C[C@@H]1NC(=O)[C@H](CCCN)NC(=O)[C@@H]2CCCN2C(=O)[C@@H](Cc2ccccc2)NC(=O)[C@H](CCCN)NC(=O)[C@H](CC23CC4CC(CC(C4)C2)C3)NC(=O)[C@H](CCCN)NC(=O)[C@@H]2CCCN2C(=O)[C@@H](Cc2ccccc2)NC(=O)[C@H](CCCN)NC1=O	16 (≈ 12.7 µM)	64 (≈ 50.6 µM)	32 (≈ 25.3 µM)	64 (≈ 50.6 µM)	32 (≈ 25.3 µM)	4 (≈ 3.17 µM)	16 (≈ 12.7 µM)	> 500	64 (≈ 50.6 µM)	64 (≈ 50.6 µM)	32 (≈ 25.3 µM)
CC(C)[C@@H]1NC(=O)[C@H](CCCN)NC(=O)[C@@H]2CCCN2C(=O)[C@@H](Cc2ccccc2)NC(=O)[C@H](CCCN)NC(=O)[C@H](C23CC4CC(CC(C4)C2)C3)NC(=O)[C@H](CCCN)NC(=O)[C@@H]2CCCN2C(=O)[C@@H](Cc2ccccc2)NC(=O)[C@H](CCCN)NC1=O	64 (≈ 51.8 µM)	> 64	> 64	> 64	> 64	16 (≈ 12.9 µM)	64 (≈ 51.8 µM)	> 500	> 64	64 (≈ 51.8 µM)	> 64
CC(C)(C)C[C@@H]1NC(=O)[C@H](CCCN)NC(=O)[C@@H]2CCCN2C(=O)[C@@H](Cc2ccccc2)NC(=O)[C@H](CCCN)NC(=O)[C@H](CC23CC4CC(CC(C4)C2)C3)NC(=O)[C@H](CCCN)NC(=O)[C@@H]2CCCN2C(=O)[C@@H](Cc2ccccc2)NC(=O)[C@H](CCCN)NC1=O	16 (≈ 12.5 µM)	16 (≈ 12.5 µM)	16 (≈ 12.5 µM)	16 (≈ 12.5 µM)	16 (≈ 12.5 µM)	4 (≈ 3.13 µM)	4 (≈ 3.13 µM)	500	32 (≈ 25 µM)	16 (≈ 12.5 µM)	16 (≈ 12.5 µM)
CC(C)C[C@@H]1NC(=O)[C@H](CCCN)NC(=O)[C@@H]2CCCN2C(=O)[C@@H](Cc2ccccc2)NC(=O)[C@H](CCCN)NC(=O)[C@H](CC(C)C)NC(=O)[C@H](CCCN)NC(=O)[C@@H]2CCCN2C(=O)[C@@H](Cc2ccccc2)NC(=O)[C@H](CCCN)NC1=O	> 64			> 64		64 (≈ 54.6 µM)	> 64	> 500	> 64	> 64	
CC(C)C[C@@H]1NC(=O)[C@H](CCCN)NC(=O)[C@H](C(C)C)NC(=O)[C@@H]2CCCN2C(=O)[C@@H](Cc2ccccc2)NC(=O)[C@H](CC(C)C)NC(=O)[C@H](CCCN)NC(=O)[C@H](C(C)C)NC(=O)[C@@H]2CCCN2C(=O)[C@@H](Cc2ccccc2)NC1=O [GRAMICIDIN S] (cyclo(L[dF]PV[Orn]L[dF]PV[Orn]))	64 (≈ 56.1 µM)	8 (≈ 7.01 µM)	8 (≈ 7.01 µM)	32 (≈ 28 µM)	8 (≈ 7.01 µM)	8 (≈ 7.01 µM)	8 (≈ 7.01 µM)	31.3	16 (≈ 14 µM)	8 (≈ 7.01 µM)	8 (≈ 7.01 µM)
CC(C)(C)C[C@@H]1NC(=O)[C@H](CCCN)NC(=O)[C@@H]2CCCN2C(=O)[C@@H](Cc2ccccc2)NC(=O)[C@H](CCCN)NC(=O)[C@H](CC(C)(C)C)NC(=O)[C@H](CCCN)NC(=O)[C@@H]2CCCN2C(=O)[C@@H](Cc2ccccc2)NC(=O)[C@H](CCCN)NC1=O	64 (≈ 53.4 µM)	> 64	> 64	> 64	> 64	16 (≈ 13.3 µM)	> 64	> 500	> 64	> 64	> 64
CC(C)[C@@H]1NC(=O)[C@H](CCCN)NC(=O)[C@@H]2CCCN2C(=O)[C@@H](Cc2ccccc2)NC(=O)[C@H](CCCN)NC(=O)[C@H](C(C)(C)C)NC(=O)[C@H](CCCN)NC(=O)[C@@H]2CCCN2C(=O)[C@@H](Cc2ccccc2)NC(=O)[C@H](CCCN)NC1=O	> 64	> 64	> 64	> 64	> 64	64 (≈ 55.3 µM)	> 64	> 500	> 64	> 64	> 64
